Data as given in US8598364B2, “Oligomer-protease inhibitor conjugates” (Nektar Therapeutics, priority 2007, dated 2013).
pEC50, pIC50: −log10 of the molar value. Like-named read-outs stand apart in the source and are kept apart here.

Key:
HIV-1RF = test: Anti-HIV-1 efficacy in CEM-SS cells infected with HIV-1RF (MTS staining); format: cell-based; conditions: for pIC50: read-out: In vitro Activity IC50
Protocol: (§1) Compounds were tested at a 1.0 μM high-test concentration in DMSO. CEM-SS cells were passaged in T-75 flasks prior to use in the antiviral assay. On the day preceding the assay, the cells were split 1:2 in order to assure they were in exponential growth phase at the time of infection. Total cell and viability quantification was performed using a hemacytometer and trypan blue exclusion. Cell viability was greater than 95% for the cells to be utilized in the assay. The cells were resuspended at 5×10^4 cells/mL in tissue culture medium and added to the drug-containing microtiter plates in a volume of 50 μL.
The virus used was the lymphocytropic virus strain HIV-1RF. This virus was obtained from the NIH AIDS research and Reference Reagent Program and was grown in CEM-SS cells for the production of stock virus pools. For each assay, a pre-titered aliquot of virus was removed from the freezer and allowed to thaw slowly to room temperature in a biological safety cabinet. The virus was resuspended and diluted into tissue culture medium such that the amount of virus added to each well in a volume of 50 μL was the amount determined to give approximately 90% cell killing in six days post-infection.
(§2) Each plate contains cell control wells (cells only), virus control wells (cells plus virus), compound cytotoxicity wells (cells plus compound only), compound colorimetric control wells (compound only), as well as experimental wells (compound plus cells plus virus). Samples were evaluated with triplicate measurements for antiviral efficacy and duplicate measurements for cytotoxicity. Six concentrations at half-log dilutions were used in order to determine the IC50 values and to measure cellular cytotoxicity, if detectable.
(§3) At assay termination, the assay plates were stained with the soluble tetrazolium-based dye MTS (CellTiter Reagent, Promega) to determine cell viability and quantify compound cytotoxicity. […] At termination of the assay, 20 μL of MTS reagent was added per well. The wells were incubated for four to six hours at 37° C. Adhesive plate sealers were used in place of the lids, the seal plate was inverted several times to mix the soluble formazan product and the plate was read spectrophotometrically at 490/650 nm with a Molecular Devices Vmax plate reader.

CEM-SS cells = test: in vitro
Protocol: as §1, §2, §3

retroviral protease = molecular target: T1, retroviral protease (Human immunodeficiency virus type 1 group M subtype B, UniProt P04585); test: Cell-free assay of protease inhibitor conjugates; format: biochemical; conditions: for IC50-fold change / IC90 fold change: relative to atazanavir
T1 construct: any small molecule that can reduce the activity of a retroviral protease

in vitro = conditions: human
Protocol: as §1, §2, §3

[1] = Table 1, CEM-SS cells, HIV-1RF, 50% inhibition of virus replication, 1.0 μM high-test concentration
[2] = Table 2, atazanavir conjugates, read-out: CEM-SS/HIV-1RF EC50
[3] = Table 4, CEM-SS/HIV-1RF, read-out: EC50
[4] = IC50, Table 3, cell-free assay, atazanavir conjugates
[5] = Human immunodeficiency virus 1, CEM-SS, Table 2, atazanavir conjugates, read-out: CEM-SS/HIV-1RF EC50
[6] = Human immunodeficiency virus 1, Table 4, CEM-SS/HIV-1RF, read-out: EC50
[7] = Table 3, cell-free assay, atazanavir conjugates, read-out: IC50
[8] = Table 3, cell-free assay, atazanavir conjugates, read-out: IC90

Question: With “15-di-m-PEG-7-NCO-Saquinavir [di-15-m-PEG-7-NCO-Saquinavir]” as the molecule, how does the pIC50 (HIV-1RF; [1]) read?
Answer: 6.25

Question: And the CC50 (CEM-SS cells)?
Answer: > 1000 nM

Question: Which results are given for 15-m-PEG-7-NHCO-Saquinavir?
Answer: pIC50 (HIV-1RF; [1]): 7.30; CC50 (CEM-SS cells): > 1000 nM

Question: Which results are given for 26-m-PEG-3-O-Saquinavir?
Answer: In vitro Activity IC50 (HIV-1RF; [1]): no activity; CC50 (CEM-SS cells): > 1000 nM

Question: With 26-m-PEG-7-O-Saquinavir as the molecule, how does the “In vitro Activity IC50” value (HIV-1RF; [1]) read?
Answer: no activity

Question: What about the CC50 (CEM-SS cells) of the same molecule?
Answer: > 1000 nM

Question: With Cc1cn([C@H]2C[C@H](N=[N+]=[N-])[C@@H](CO)O2)c(=O)[nH]c1=O [AZT, reference compound] as the molecule, how does the pEC50 (HIV-1RF; [2]) read?
Answer: 9.00

Question: And the pEC50 (HIV-1RF; [3])?
Answer: 9.00

Question: And the pEC50 (HIV-1RF; Table 5, tipranavir conjugates in cell-based assay, read-out: CEM-SS/HIV-1RF EC50)?
Answer: 8.70

Question: What about the pEC50 (HIV-1RF; Table 7, darunavir conjugates in cell-based assay, read-out: CEM-SS/HIV-1RF EC50) of the same molecule?
Answer: 8.30

Question: What about the CC50 (CEM-SS cells) of the same molecule?
Answer: > 1000 nM

Question: Which IC90 (retroviral protease) does the source give for COC(=O)N[C@H](C(=O)N[C@@H](Cc1ccccc1)[C@@H](O)CN(Cc1ccc(-c2ccccn2)cc1)NC(=O)[C@@H](NC(=O)OC)C(C)(C)C)C(C)(C)C [Atazanavir, atazanavir, reference compound] here?
Answer: 31.8 nM

Question: And the pIC50 (retroviral protease; [4])?
Answer: 8.16

Question: What about the IC50-fold change (retroviral protease; Table 3, cell-free assay) of the same molecule?
Answer: 1.0

Question: And the IC90 fold change (retroviral protease; Table 3, cell-free assay)?
Answer: 1.0

Question: And the pEC50 (HIV-1RF; [5])?
Answer: 7.92

Question: And the pEC50 (HIV-1RF; [6])?
Answer: 7.92

Question: And the CC50 (in vitro)?
Answer: 54900 nM

Question: With CC(C)CN(C[C@@H](O)[C@H](Cc1ccccc1)NC(=O)O[C@H]1CO[C@H]2OCC[C@H]21)S(=O)(=O)c1ccc(N)cc1 [Darunavir, darunavir, reference compound] as the molecule, how does the pEC50 (HIV-1RF; Human immunodeficiency virus 1, CEM-SS, read-out: CEM-SS/HIV-1RF EC50) read?
Answer: > 9.15

Question: With CC(C)(C)NC(=O)[C@@H]1C[C@@H]2CCCC[C@@H]2CN1C[C@@H](O)[C@H](Cc1ccccc1)NC(=O)[C@H](CC(N)=O)NC(=O)c1ccc2ccccc2n1 [Saquinavir, saquinavir, reference compound] as the molecule, how does the pIC50 (HIV-1RF; Human immunodeficiency virus 1, CEM-SS) read?
Answer: 8.70

Question: What about the CC50 (in vitro) of the same molecule?
Answer: > 100 nM

Question: With CCC[C@@]1(CCc2ccccc2)CC(O)=C([C@H](CC)c2cccc(NS(=O)(=O)c3ccc(C(F)(F)F)cn3)c2)C(=O)O1 [Tipranavir, tipranavir, reference compound] as the molecule, how does the pIC50 (retroviral protease; IC50, Table 6, tipranavir conjugates in cell-free assay) read?
Answer: 8.14

Question: What about the pEC50 (HIV-1RF; Human immunodeficiency virus 1, CEM-SS, Table 5, tipranavir conjugates in cell-based assay, read-out: CEM-SS/HIV-1RF EC50) of the same molecule?
Answer: 6.92

Question: And the CC50 (in vitro)?
Answer: 30600 nM

Question: For COCCOCCOCCOC(=O)NC(C(=O)NC(Cc1ccccc1)C(O)CN(Cc1ccc(-c2ccccn2)cc1)NC(=O)C(NC(=O)OCCOCCOCCOC)C(C)(C)C)C(C)(C)C (stereo not shown) [di-mPEG-3-Atazanavir, di-mPEG3-Atazanavir], which IC90 (retroviral protease) is on record?
Answer: 53.7 nM

Question: And the pIC50 (retroviral protease; [4])?
Answer: 7.90

Question: What about the IC50-fold change (retroviral protease; Table 3, cell-free assay) of the same molecule?
Answer: 1.8

Question: And the IC90 fold change (retroviral protease; Table 3, cell-free assay)?
Answer: 1.7

Question: What about the pEC50 (HIV-1RF; [5]) of the same molecule?
Answer: 7.42

Question: What about the pEC50 (HIV-1RF; [6]) of the same molecule?
Answer: 7.42

Question: What about the CC50 (in vitro) of the same molecule?
Answer: 95700 nM

Question: What does the source list for COCCOCCOCCOCCOCCOCCOCCOC(=O)NC(C(=O)NC(Cc1ccccc1)C(O)CN(Cc1ccc(-c2ccccn2)cc1)NC(=O)C(NC(=O)OCCOCCOCCOCCOCCOCCOCCOC)C(C)(C)C)C(C)(C)C (stereo not shown) [di-mPEG-7-Atazanavir, di-mPEG7-Atazanavir]?
Answer: IC90 (retroviral protease): 39.9 nM; pIC50 (retroviral protease; [4]): 7.96; IC50-fold change (retroviral protease; Table 3, cell-free assay): 1.6; IC90 fold change (retroviral protease; Table 3, cell-free assay): 1.3; pEC50 (HIV-1RF; [5]): 5.08; pEC50 (HIV-1RF; [6]): 5.08; CC50 (CEM-SS cells; human): > 200000 nM; CC50 (in vitro): > 200000 nM

Question: What does the source list for “di-mPEG5-Atazanavir [di-mPEG-5-Atazanavir]”?
Answer: pIC50 (retroviral protease; [7]): 7.76; IC90 (retroviral protease; [8]): 47.6 nM; IC50-fold change (retroviral protease; Table 3, cell-free assay): 2.5; IC90 fold change (retroviral protease; Table 3, cell-free assay): 1.5; pEC50 (HIV-1RF; [2]): 5.96; pEC50 (HIV-1RF; [3]): 5.96; CC50 (CEM-SS cells): > 200000 nM

Question: Which results are given for “di-mPEG6-Atazanavir [di-mPEG-6-Atazanavir]”?
Answer: pIC50 (retroviral protease; [7]): 7.81; IC90 (retroviral protease; [8]): 67.8 nM; IC50-fold change (retroviral protease; Table 3, cell-free assay): 2.3; IC90 fold change (retroviral protease; Table 3, cell-free assay): 2.1; pEC50 (HIV-1RF; [2]): 5.60; pEC50 (HIV-1RF; [3]): 5.60; CC50 (CEM-SS cells): 159000 nM
